# From ChEMBL document CHEMBL1201862, “PubChem BioAssay data set” (2004)
# Activity calls are given as the source filed them.
# How the values were obtained:
# [1] = target: T1, Bcl-2-related protein A1 (Mus musculus, UniProt Q07440); type: functional;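 also: confirmatory dose–response counterscreen on Bfl-1, used to check hits from a UBC13 polyubiquitin inhibitor campaign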
# T1 sequence (Q07440 whole entry): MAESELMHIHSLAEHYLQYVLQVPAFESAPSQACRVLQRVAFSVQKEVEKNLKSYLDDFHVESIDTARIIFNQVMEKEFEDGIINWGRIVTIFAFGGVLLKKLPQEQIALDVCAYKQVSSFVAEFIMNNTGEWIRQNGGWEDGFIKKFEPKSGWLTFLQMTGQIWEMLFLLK
# [2] = target: T2, Ubiquitin-conjugating enzyme E2 N (Homo sapiens, UniProt P61088); type: functional
# T2 sequence (P61088 whole entry): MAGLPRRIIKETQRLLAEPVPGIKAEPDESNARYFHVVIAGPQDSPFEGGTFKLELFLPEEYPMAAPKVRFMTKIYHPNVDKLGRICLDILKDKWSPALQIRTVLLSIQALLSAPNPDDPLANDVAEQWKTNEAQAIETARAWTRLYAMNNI
# [3] = target: T2, Ubiquitin-conjugating enzyme E2 N; type: functional; remark: listed apart in the source
# [4] = target: T3, Voltage-gated N-type calcium channel alpha-1B subunit/Amyloid beta A4 precursor protein-binding family A member 1 (Homo sapiens, UniProt Q00975+Q02410); type: protein assay
# [5] = target: T3, Voltage-gated N-type calcium channel alpha-1B subunit/Amyloid beta A4 precursor protein-binding family A member 1; type: protein assay; remark: listed apart in the source
# [6] = target: G-protein coupled receptor 55 (Homo sapiens, UniProt Q9Y2T6); assay: inhibition of LPI-stimulated GPR55 beta-arrestin translocation – imaging, U2OS, beta-arrestin-GFP, LPI agonist, primary screen (AID 2013); type: functional;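 also: antagonist potency measured as reduced agonist-driven arrestin aggregation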
# [7] = target: Luciferin 4-monooxygenase (Photinus pyralis, UniProt P08659); assay: Counter Screen for Luciferase-based Assay Positives. [Related pubchem assays: 620, 618, 411 ]
# [8] = system: HT-1080; assay: HT1080 cell viability loss – fluorescence readout (AID 620); type: functional, cell-based; conditions: Homo sapiens
# [9] = target: T4, Hexokinase HKDC1 (Homo sapiens, UniProt Q2TB90); assay: activation of HKDC1 glucose phosphorylation – biochemical, W721R variant, dose response (AID 504730); type: functional
# T4 sequence (Q2TB90 whole entry): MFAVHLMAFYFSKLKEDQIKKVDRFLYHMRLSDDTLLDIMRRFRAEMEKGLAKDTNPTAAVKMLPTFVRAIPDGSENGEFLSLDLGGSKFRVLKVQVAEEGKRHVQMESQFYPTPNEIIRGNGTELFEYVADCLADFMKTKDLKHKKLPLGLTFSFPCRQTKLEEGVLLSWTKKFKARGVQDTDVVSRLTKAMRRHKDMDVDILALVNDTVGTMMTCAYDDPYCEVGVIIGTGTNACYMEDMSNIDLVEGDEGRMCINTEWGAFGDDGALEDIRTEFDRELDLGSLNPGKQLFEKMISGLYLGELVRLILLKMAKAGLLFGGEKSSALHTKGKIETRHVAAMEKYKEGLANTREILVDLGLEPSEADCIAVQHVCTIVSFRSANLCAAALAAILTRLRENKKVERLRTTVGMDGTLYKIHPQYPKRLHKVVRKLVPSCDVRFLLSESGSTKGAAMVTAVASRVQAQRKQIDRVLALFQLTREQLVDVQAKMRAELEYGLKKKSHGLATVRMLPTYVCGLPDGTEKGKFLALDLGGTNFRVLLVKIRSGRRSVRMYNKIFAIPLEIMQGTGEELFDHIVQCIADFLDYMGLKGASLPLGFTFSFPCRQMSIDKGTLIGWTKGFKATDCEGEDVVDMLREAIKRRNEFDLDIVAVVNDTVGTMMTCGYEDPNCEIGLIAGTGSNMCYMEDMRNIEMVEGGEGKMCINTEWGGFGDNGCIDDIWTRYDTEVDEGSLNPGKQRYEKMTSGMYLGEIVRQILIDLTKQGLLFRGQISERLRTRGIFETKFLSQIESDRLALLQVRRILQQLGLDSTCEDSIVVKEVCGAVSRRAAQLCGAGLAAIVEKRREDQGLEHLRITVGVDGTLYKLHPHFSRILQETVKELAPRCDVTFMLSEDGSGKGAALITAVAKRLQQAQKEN
# [10] = target: T5, Hexokinase-1 (Homo sapiens, UniProt P19367); assay: HK1 enzyme activation by HKDC1 hits – biochemical, selectivity assay for HKDC1 activator project, dose response (AID 504762); type: functional
# T5 sequence (P19367 whole entry): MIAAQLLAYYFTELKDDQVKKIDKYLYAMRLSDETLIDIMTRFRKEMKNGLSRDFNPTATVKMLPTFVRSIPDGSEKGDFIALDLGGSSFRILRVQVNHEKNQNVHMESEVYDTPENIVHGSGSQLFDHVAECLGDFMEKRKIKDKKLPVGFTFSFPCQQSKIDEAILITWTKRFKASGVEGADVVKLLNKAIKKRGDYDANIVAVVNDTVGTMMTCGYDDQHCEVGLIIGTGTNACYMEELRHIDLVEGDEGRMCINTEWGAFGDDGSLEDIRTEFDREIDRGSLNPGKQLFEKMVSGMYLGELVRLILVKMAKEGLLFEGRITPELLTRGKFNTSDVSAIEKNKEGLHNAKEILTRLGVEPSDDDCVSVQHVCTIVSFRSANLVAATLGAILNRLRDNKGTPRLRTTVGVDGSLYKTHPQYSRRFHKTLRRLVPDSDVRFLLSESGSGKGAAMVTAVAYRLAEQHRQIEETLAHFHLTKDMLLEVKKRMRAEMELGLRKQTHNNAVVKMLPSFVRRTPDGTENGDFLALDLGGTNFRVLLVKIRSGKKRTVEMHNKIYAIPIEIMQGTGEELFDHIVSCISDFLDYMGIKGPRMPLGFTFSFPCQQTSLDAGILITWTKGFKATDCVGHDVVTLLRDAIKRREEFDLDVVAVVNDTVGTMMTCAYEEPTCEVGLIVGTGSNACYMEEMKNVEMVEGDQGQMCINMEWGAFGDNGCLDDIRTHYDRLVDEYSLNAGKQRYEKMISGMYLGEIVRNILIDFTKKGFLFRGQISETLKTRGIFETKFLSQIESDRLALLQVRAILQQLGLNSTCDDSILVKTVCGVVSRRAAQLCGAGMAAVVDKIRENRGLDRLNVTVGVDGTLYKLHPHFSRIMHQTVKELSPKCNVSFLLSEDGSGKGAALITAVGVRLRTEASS
# [11] = target: Cytochrome P450 2D6 (Homo sapiens, UniProt P10635);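 also: CYP2D6 member of a cytochrome P450 panel assay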
# [12] = target: Troponin, cardiac muscle (Homo sapiens, UniProt P19429+P45379+P63316); assay: Fluorescence-based biochemical high throughput dose response assay for activators of the calcium sensitivity of cardiac Regulated Thin Filaments (RTF). [Related pubchem assays (depositor defined):AID493008, AID493018, AID504382, AID504383]; type: protein-complex assay
# [13] = target: T6, Tyrosine-protein phosphatase non-receptor type 7 (Homo sapiens, UniProt P35236); type: functional
# T6 sequence (P35236 whole entry): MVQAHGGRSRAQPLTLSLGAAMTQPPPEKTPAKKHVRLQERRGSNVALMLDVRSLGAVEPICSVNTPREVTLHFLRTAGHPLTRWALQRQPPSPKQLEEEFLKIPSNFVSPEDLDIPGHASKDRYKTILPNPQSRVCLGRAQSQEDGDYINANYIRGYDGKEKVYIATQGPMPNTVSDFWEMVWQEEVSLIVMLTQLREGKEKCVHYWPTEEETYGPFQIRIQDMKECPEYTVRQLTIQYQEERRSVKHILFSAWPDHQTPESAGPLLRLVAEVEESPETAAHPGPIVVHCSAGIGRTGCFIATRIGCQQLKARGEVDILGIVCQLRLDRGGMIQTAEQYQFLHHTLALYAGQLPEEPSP
# [14] = target: T7, Tyrosine-protein phosphatase non-receptor type 22 (Homo sapiens, UniProt Q9Y2R2); type: functional
# T7 sequence (Q9Y2R2 whole entry): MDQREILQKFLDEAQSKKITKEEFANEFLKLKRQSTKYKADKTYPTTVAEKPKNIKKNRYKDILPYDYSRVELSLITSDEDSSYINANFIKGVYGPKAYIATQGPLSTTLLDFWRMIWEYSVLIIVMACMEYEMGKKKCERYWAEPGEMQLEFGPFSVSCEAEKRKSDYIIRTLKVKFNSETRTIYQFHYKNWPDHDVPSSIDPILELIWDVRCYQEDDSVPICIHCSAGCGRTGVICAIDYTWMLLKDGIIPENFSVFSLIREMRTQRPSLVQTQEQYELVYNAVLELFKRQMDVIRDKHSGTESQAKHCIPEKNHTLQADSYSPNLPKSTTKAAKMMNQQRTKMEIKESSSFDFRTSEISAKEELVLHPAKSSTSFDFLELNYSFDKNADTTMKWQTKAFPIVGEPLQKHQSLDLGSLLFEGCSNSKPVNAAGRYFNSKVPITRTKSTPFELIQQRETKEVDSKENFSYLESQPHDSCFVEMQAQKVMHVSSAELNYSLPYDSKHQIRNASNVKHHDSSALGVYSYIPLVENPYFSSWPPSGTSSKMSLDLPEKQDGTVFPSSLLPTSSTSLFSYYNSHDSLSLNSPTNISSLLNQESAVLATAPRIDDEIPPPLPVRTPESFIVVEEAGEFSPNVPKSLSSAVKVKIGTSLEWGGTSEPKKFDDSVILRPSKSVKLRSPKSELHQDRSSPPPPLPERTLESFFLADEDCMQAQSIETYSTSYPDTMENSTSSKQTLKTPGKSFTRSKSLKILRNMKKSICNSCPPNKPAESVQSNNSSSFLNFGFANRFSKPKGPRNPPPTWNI
# [15] = target: T7, Tyrosine-protein phosphatase non-receptor type 22; type: functional; remark: listed apart in the source
# [16] = system: Streptococcus sp. 'group A'; assay: Streptococcus pyogenes SK(-)GAS viability under kanamycin – luminescence, BacTiterGlo, confirmation, counter-screen for streptokinase expression inhibitor project, dose response (AID 1900); type: functional, organism-based
# [17] = Trypanosoma cruzi growth suppression in host cells – NIH3T3 host cells, beta-gal luminescence, confirmation (AID 2044); type: functional, cell-based;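 also: intracellular parasites grown in NIH/3T3 mouse fibroblasts as host cells; luminescent beta-galactosidase reporter signal from transgenic T. cruzi replicating inside host cells; inhibitors lower the luminescence signal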
# [18] = NIH3T3 cell viability loss – ATP luminescence, mouse fibroblasts, counter-screen, dose response (AID 2010); type: functional, cell-based;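 also: cells exposed to compound for about 90 hours before reading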
# [19] = system: Streptococcus; assay: GAS UMAA2166 growth inhibition – luminescence, BacTiterGlo, counter-screen for streptokinase expression inhibitor project, dose response (AID 1915); type: functional, organism-based;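 also: potency for reduction of bacterial viability or growth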
# [20] = target: Heat shock protein HSP 90-alpha (Homo sapiens, UniProt P07900); type: functional, organism-based
# [21] = reduction of Shn3 3'UTR-driven luciferase in osteoblasts – cell-based, Clone20 osteoblasts, firefly luciferase, cherry-picked, dose response (AID 624132); type: functional;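 also: firefly luciferase luminescence from reporter carrying the Shn3 3'UTR in osteoblasts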
# [22] = loss of viability in HepG2 cells – cell-based, CellTiter-Glo, cherry-picked, cytotoxicity control for Shn3 inhibitor project, dose response (AID 624134); type: functional
# [23] = non-specific 3'UTR reporter inhibition in Clone20-Shn3RL – cell-based, Renilla luciferase, cherry-picked, counter-screen for Shn3 inhibitor project, dose response (AID 624133); type: functional
# [24] = decrease of insulin promoter-GFP reporter – imaging, high-content screening, mouse beta cells (AID 1628); type: functional; conditions: MIN6
# [25] = MIN6 cell viability loss – mouse insulinoma, cytotoxicity control, dose response (AID 2122); type: functional;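 also: confirmatory high-throughput counterscreen run to flag cytotoxic compounds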
# [26] = system: INS1; assay: INS-1E survival protection against cytokine death – cell-based, luminescence, retest, dose response (AID 449756); type: functional; conditions: Rattus norvegicus;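 also: cell death triggered by IL-1 beta plus TNF-alpha plus IFN-gamma mixture; protective hits raise ATP signal compared with cytokine alone wells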
# T3 sequence (Q00975 whole entry): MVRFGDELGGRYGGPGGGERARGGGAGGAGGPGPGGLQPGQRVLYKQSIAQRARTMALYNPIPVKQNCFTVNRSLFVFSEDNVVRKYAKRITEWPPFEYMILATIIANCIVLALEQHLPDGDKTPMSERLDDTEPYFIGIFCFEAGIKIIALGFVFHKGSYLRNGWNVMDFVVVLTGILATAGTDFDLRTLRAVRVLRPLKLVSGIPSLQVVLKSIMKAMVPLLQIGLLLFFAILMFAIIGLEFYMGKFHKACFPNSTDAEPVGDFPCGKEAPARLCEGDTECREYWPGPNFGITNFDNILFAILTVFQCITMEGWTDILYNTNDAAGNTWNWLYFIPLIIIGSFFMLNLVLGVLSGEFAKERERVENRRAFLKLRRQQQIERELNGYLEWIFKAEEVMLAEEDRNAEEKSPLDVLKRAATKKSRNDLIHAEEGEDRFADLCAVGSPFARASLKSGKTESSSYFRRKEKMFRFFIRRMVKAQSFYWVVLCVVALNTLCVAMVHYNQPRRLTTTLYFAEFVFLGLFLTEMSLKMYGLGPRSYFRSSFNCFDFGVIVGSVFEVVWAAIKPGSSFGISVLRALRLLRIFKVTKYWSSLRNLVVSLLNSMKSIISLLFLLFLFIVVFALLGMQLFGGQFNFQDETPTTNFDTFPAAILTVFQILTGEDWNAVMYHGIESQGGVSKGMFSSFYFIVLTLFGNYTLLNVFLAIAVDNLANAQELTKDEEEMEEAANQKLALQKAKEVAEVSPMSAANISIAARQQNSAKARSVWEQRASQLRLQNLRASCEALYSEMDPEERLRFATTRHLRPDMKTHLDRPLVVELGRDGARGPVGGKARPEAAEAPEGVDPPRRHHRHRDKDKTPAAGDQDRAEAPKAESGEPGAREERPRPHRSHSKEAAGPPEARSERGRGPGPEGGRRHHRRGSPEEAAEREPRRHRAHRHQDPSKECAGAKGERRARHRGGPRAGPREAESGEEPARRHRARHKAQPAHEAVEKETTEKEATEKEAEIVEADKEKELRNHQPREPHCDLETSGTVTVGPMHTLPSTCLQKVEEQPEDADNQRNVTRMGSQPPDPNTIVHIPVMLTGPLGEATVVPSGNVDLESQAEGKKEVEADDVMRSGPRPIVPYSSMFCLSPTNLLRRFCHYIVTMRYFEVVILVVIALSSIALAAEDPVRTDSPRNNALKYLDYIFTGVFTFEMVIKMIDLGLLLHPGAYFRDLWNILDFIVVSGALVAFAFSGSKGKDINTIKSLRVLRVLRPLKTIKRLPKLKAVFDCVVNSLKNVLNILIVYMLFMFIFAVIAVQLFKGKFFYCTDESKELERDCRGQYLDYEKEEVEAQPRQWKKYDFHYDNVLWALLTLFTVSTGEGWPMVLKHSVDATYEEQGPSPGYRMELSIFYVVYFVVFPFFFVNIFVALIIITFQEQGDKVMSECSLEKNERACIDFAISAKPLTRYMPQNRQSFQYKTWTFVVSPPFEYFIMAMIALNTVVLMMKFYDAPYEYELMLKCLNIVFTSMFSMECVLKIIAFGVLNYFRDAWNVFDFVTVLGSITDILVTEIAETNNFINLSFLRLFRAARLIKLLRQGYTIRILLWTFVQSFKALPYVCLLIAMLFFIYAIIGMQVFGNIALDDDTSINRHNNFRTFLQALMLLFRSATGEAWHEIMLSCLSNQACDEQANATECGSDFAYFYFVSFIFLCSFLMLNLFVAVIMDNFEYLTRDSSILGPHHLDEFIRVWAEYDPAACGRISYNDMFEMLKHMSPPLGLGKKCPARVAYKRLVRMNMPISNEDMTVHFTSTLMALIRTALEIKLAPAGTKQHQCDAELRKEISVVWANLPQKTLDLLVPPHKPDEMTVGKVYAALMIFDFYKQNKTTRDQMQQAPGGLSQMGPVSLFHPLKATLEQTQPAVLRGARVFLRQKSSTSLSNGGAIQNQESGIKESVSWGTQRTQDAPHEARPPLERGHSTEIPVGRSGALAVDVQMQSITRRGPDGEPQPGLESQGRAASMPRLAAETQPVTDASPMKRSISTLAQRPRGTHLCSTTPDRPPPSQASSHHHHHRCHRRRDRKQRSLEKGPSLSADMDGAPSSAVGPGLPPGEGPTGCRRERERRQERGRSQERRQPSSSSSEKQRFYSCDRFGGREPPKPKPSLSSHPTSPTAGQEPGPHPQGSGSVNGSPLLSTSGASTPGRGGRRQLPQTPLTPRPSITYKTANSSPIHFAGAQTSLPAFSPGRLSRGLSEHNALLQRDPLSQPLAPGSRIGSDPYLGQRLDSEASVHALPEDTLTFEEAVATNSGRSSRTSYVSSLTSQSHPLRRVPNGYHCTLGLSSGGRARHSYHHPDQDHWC
# T3 sequence (Q02410 whole entry): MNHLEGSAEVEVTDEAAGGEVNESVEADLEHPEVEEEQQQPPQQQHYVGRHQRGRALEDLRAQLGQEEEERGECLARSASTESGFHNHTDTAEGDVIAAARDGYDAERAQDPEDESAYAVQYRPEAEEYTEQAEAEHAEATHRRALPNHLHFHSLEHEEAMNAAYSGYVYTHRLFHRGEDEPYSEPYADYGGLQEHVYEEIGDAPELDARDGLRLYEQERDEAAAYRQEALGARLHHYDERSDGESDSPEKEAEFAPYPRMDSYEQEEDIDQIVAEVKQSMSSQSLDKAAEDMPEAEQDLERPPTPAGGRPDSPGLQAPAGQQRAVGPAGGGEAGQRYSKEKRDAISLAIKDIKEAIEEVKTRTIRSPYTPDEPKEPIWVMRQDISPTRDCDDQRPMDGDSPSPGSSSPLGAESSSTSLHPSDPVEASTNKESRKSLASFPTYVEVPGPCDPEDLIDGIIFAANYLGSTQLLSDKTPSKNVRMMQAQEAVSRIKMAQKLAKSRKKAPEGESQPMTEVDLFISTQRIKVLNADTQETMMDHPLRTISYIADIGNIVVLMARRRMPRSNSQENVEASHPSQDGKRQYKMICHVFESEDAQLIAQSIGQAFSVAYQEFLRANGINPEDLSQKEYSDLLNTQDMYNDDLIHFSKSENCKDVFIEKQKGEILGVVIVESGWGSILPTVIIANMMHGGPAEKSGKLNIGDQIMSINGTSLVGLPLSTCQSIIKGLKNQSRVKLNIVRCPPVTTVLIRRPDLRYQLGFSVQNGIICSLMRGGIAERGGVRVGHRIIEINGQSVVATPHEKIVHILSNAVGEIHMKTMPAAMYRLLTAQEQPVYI
# Chain of G-protein coupled receptor 55 (Q9Y2T6 whole entry): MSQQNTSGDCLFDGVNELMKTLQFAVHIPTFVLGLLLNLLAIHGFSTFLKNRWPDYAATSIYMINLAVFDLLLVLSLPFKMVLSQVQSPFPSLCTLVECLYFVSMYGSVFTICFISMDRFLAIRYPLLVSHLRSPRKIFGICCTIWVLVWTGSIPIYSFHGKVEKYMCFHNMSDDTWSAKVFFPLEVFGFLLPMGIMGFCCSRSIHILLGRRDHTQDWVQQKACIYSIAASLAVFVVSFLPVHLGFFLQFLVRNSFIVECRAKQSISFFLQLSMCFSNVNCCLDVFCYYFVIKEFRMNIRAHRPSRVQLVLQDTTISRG
# Chain of Cytochrome P450 2D6 (P10635 whole entry): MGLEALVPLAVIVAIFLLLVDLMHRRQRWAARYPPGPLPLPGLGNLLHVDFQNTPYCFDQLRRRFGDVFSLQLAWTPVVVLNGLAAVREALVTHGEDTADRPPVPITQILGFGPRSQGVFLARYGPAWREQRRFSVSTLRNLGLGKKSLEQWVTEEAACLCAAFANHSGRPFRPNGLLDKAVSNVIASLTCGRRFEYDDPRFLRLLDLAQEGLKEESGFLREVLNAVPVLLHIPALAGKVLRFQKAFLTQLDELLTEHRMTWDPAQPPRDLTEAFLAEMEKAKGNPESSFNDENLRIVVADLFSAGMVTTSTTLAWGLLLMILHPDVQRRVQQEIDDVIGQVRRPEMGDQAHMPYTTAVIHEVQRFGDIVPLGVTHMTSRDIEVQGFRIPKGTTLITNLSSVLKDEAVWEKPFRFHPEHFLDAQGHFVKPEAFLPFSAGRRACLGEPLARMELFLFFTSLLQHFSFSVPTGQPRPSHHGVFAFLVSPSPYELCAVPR
# Chain of Luciferin 4-monooxygenase (P08659 whole entry): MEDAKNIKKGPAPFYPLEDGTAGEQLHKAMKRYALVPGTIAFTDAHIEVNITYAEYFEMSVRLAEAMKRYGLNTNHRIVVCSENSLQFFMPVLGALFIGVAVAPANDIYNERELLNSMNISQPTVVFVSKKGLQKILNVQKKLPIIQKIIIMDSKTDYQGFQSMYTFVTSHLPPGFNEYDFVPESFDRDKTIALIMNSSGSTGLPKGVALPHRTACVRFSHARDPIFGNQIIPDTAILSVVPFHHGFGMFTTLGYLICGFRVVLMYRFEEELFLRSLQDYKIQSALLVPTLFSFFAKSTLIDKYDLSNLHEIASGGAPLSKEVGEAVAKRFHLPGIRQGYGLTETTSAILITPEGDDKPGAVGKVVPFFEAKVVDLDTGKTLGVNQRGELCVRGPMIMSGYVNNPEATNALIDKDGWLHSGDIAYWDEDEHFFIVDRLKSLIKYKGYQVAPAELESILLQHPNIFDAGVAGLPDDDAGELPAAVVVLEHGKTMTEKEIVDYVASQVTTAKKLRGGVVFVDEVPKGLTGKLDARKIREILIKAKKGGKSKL
smiles,measurement,setting,value
Cc1onc(-c2ccccc2)c1C(=O)Nc1cccc2nsnc12,IC50,[1],> 20 µM (inactive)
same,IC50,[2],15.6 µM (active)
same,IC50,[3],> 20 µM (inactive)
O=C(NCCO)c1cc(-c2cc(C(=O)NCCO)c3ccccc3n2)nc2ccccc12,IC50,[4],6.83 µM (active)
same,IC50,[5],> 50 µM (inactive)
Cc1cc(O)ccc1C1(c2ccc(O)cc2C)OC(=O)c2ccccc21,IC50,[6],3.46 µM (active)
CCNC1=NN=C(c2ccc(C)cc2)CS1,EC50,[7],1.03 µM (active)
same,EC50,[8],> 50 µM (not active)
same,EC50,[9],51.6 µM (inactive)
same,EC50,[10],63.1 µM (inactive)
same,AC50,[11],14.1 µM (inconclusive)
CC(C)(C)c1ccc(CN2C(=O)CN=C(c3ccccc3)c3ccccc32)cc1,IC50,[6],3.35 µM (active)
O=C(CCCCCn1c(=O)[nH]c2ccccc2c1=O)NCCc1c[nH]c2ccccc12,IC50,[1],> 20 µM (inactive)
same,IC50,[2],19.3 µM (active)
same,IC50,[3],18.1 µM (active)
c1ccc(Cn2c(-c3ccccc3)nc3nc4ccccc4nc32)cc1,EC50,[12],> 71.5 µM (inactive)
Cc1cc2ncc(Cl)nc2cc1C,IC50,[13],> 79.4 µM (inactive)
same,IC50,[14],> 79.4 µM (inactive)
same,IC50,[15],> 79.4 µM (inactive)
COc1ccc(/C=C/C(=O)NC(=S)NNC(=O)c2cnccn2)cc1,EC50,[16],4.07 µM (active)
same,EC50,[17],0.955 µM (active)
same,EC50,[18],15.2 µM (active)
same,EC50,[19],6.88 µM (active)
same,EC50,[9],2.23 µM (active)
same,EC50,[10],> 80 µM (inactive)
same,AC50,[20],1.95 µM (active)
same,AC50,[21],15.4 µM (active)
same,AC50,[22],42.4 µM (active)
same,AC50,[23],2.05 µM (active)
Nc1ccc(Br)cc1-c1nc2ccccc2nc1O,IC50,[24],< 0.25 µM (active)
same,IC50,[25],< 0.25 µM (active)
same,AC50,[26],0.63 µM (active)
COc1ccc(OCC(=O)N/N=C/c2ccc(OC)c(OC)c2C(=O)O)cc1,IC50,[13],> 79.4 µM (inactive)
same,IC50,[14],> 79.4 µM (inactive)
same,IC50,[15],> 79.4 µM (inactive)
CC(=O)N(C)c1ccc(C(O)(C(F)(F)F)C(F)(F)F)cc1,EC50,[12],> 71.5 µM (inactive)
